Source: patent US12290500B2, “Anaplerotic agents for treatment of disorders of propionate and long chain fat metabolism” (University of Pittsburgh—Of the Commonwealth System of …, priority 2016, dated 2025)

Test system: PCC deficient cells
Protocol: Control cells and PCC cells obtained from patients with PA and generated through CRISPR/CAS9 technology are grown in media with and without succinate supplementation and the metabolite profile of cell extracts is determined by metabolomic techniques. First, PCC deficient cells are grown in T-25 flasks in standard DMEM medium with and without supplemental succinate (0.1-2 mmol/L). Cells are harvested, lysed by sonication and intracellular concentrations of TCA cycle intermediates are measured by liquid chromatography-mass spectrometry (LC-MS)/MS. Next, flux through the TCA cycle is measured by incorporation of radiolabel from uniformly labeled ^14C-palmitate into TCA cycle intermediates after incubation with PPC deficient and control cells. PCC deficient cell lines are grown in DMEM complete media and transferred to 6-well plates at a seeding density of ˜200,000 cells/well. The media in the wells is changed after 24 hours to DMEM media containing 5% dialyzed fetal bovine serum (FBS). After approximately one hour, the first time point (180 minutes) receives DMEM 5% dialyzed FBS containing universally labeled palmitate with ^13C […]. The cells are incubated at 37° C., 4% CO2 for the following time points: 180 minutes, 60 minutes, 30 minutes, 10 minutes and 0 minutes. The 0 minute time point receives no isotopic labeling.

Structure (SMILES): O=C(O)CCC(=O)O [succinate]
- decreased level of TCA cycle intermediates (cell lines from patients with PA or MMA, succinate supplementation 0.1-2 mmol/L): expected to be reversed
- impaired incorporation of label from palmitate through the TCA cycle into protein (succinate supplementation): expected to be reversed
